The values that follow come from patent publication US20250026769A1, “PAPD5 INHIBITORS AND METHODS OF USE THEREOF” (The Children's Medical Center Corporation, priority 2021, published 2025).

Like-named read-outs stand apart in the source and are kept apart here.

In series [1] the test system is TERC 3′ end processing in DC patient iPSCs. The series is described as follows: TERC 3′ end processing by RACE in DC patient / PARN-mutant iPSCs. In kind it is cell-based, human. Conditions: Homo sapiens, iPSC; patient iPSCs; concentration class at which activity is seen; read-out: iPSC-based RACE activity. The procedure, abridged:
(§1)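 Activity binned by concentration giving effect in DC patient iPSCs: "+" at 1 μM, "++" above 1 nM and below 1 μM, "+++" below 1 nM; ND, not determined.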

Series [2] concerns telomere length in DC patient iPSCs. The series is described as follows: telomere length / telomere elongation in DC patient iPSCs. In kind it is cell-based, human. Particulars: Homo sapiens, iPSC; patient iPSCs; concentration class at which activity is seen; read-out: iPSC-based Telomere length. A digest of the protocol:
as §1

A further series has as its target T1, rPAPD5 (Homo sapiens, UniProt Q8NDF8).
T1 construct: made in house
The series is described as follows: differential scanning fluorimetry (DSF) binding and stabilization of rPAPD5. Particulars: for ΔTm at 1 µM: 1 μM test compound (Table 2a), read-out: ΔTm at 1 μM. The procedure, abridged:
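Differential scanning fluorimetry was used to measure how test compounds bind and thermally stabilize rPAPD5. The reaction contained SYPRO orange dye diluted 1:5000 in […] of buffer with […], 25 mM Tris-HCl, 5 mM MgCl2 and 50 mM KCl. ΔTm was calculated relative to a DMSO control.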
For orientation: In DSF a fluorescence change marks the thermal transition of the protein.

Series [3] has as its system hepatitis B surface antigen (HBSAg) from HepG2.2.15 cells, a hepatitis B virus-expressing cell line. The experiment in a line: HBsAg ELISA in supernatant of HepG2.2.15 cells. In kind it is cell-based. Particulars: HepG2.2.15, 96 h. The procedure, abridged:
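HepG2.2.15 cells plated at 50,000/well, then exposed the next day to 3-fold compound dilutions from 100 μM to 333 pM, with DMSO vehicle as control. After 4 days at 37 °C, HBsAg in the supernatant was measured by ELISA. IC50 obtained by nonlinear fitting of averaged replicates.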
A general note: ELISA stands for enzyme-linked immunosorbent assay.

Series [4] has as its system TERC 3′ end processing in primary CD34+ human hematopoietic stem and progenitor cells (HSPCs). The series is described as follows: TERC 3′ end processing (RACE) in CRISPR/Cas9-engineered PARN-deficient primary CD34+ HSPCs. The format is cell-based. Particulars: for TERC 3′ end processing by RACE at 100 nM: day 5 (FIG. 40B); for TERC 3′ end processing by RACE at 1 μM: day 5 (FIG. 40A). An excerpt: Example 167—Restoration of TERC 3′ end processing in primary CD34+ human hematopoietic stem and progenitor cells (HSPCs). To determine the efficacy of exemplified compounds in a disease-relevant stem cell population, we employed a highly-efficient CRISPR-Cas9 ribonucleoprotein transduction strategy to disrupt the PARN gene in primary human CD34+ hematopoietic stem and progenitor cells (HSPCs), or the control locus AAVS1. FIGS. 40A and 40B show extended TERC forms in CRISPR-Cas9 engineered HSPCs deficient in PARN.

The subject of series [5] is TERC 3′ ends in human CD19+ cells recovered from mice xenotransplanted with HSPCs. The experiment in a line: TERC 3′ end processing in vivo in human CD19+ cells after xenotransplantation into NBSGW mice. The arrangement: species or system immunodeficient NBSGW mice with human HSPCs. An excerpt:
(§2) Example 168—Restoration of TERC 3′ end processing in vivo in human blood cells after xenotransplantation into immunodeficient mice. To determine the efficacy of orally administered exemplified compounds in primary human HSPCs and blood cells in restoring TERC processing in vivo, highly-efficient CRISPR-Cas9 ribonucleoprotein transduction was employed to disrupt the PARN gene in primary human CD34+ HSPCs or the control locus AAVS1. These genome-edited human HSPCs were xenotransplanted into immunodeficient NOD,B6.SCID Il2rg−/− KitW4l/W41 (NBSGW) mice, which engraft human HSPCs without exposure to radiation or chemotherapy. Six to ten weeks after xenotransplantation, exemplified compounds were administered for 4 to 7 days alongside controls. Thereafter, human hematopoietic cells were recovered from mouse bone marrow, and engraftment was analyzed by flow cytometry. Engrafted human hematopoietic cells were sorted for lineage markers, and CD19+ cells were used for analysis of restoration of TERC 3′ end processing by RNA-ligation mediated 3′ RACE.

Series [6] has as its system engraftment of CD45+, CD19+, CD34+ human blood cells. The series is described as follows: engraftment of human blood cells in xenotransplanted mice by flow cytometry. In kind it is in vivo, immunodeficient NBSGW mice with human HSPCs.
Description: as §2

Where [7] appears, read: 10 μM test compound (Table 2a), read-out: ΔTm at 10 μM.

T1 sequence (Q8NDF8 68-698 isoform Q8NDF8-5 limits assumed): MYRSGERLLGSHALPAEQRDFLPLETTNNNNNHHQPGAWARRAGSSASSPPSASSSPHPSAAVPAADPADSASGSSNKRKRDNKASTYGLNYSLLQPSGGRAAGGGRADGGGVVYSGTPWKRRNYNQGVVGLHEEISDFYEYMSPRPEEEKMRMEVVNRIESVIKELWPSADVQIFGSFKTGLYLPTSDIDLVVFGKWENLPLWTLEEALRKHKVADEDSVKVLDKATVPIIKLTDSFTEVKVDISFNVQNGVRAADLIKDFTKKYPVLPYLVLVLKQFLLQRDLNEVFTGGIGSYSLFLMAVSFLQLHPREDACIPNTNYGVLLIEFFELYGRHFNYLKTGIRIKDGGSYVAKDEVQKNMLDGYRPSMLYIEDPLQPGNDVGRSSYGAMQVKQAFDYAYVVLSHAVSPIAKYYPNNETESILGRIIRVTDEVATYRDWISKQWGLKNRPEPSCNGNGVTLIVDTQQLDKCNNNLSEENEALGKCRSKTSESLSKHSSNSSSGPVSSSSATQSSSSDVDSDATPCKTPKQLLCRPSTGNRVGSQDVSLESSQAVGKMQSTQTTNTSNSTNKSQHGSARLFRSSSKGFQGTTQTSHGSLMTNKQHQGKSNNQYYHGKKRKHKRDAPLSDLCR

Regarding `O=C(O)c1cc(Cl)ccc1Nc1c(N2CCOCC2)cnc2ccc(Cl)cc12` [Compound 339A, 5-chloro-2-[(6-chloro-3-morpholino-4-quinolyl)amino]benzoic acid], the minimal effective concentration in series [1] was less than 0.001 µM. Further, in series [2], the minimal effective concentration was less than 0.001 µM. Further, the ΔTm at 1 µM at rPAPD5 is more than 5 °C. Moreover, at rPAPD5 (setting [7]), the thermal shift (ΔTm) at 10 µM was more than 5 °C. Also, the ΔTm at 100 µM at rPAPD5 (100 μM test compound, shift vs DMSO control, read-out: ΔTm at 100 μM) is more than 5 °C. In series [3], this compound registered an IC50 of 75 nM. In series [4], the “TERC 3′ end processing by RACE at 100 nM” value is on record as “maturation of TERC 3′ end processing” and the “TERC 3′ end processing by RACE at 1 μM” value was “maturation of TERC 3′ end processing”. The “TERC 3′ ends in human CD19+ cells (RACE)” value in series [5] (1 mM in drinking water for 7 days (FIG. 41C)) is recorded as “maturation of TERC 3′ ends”. In series [6] (1 mM in drinking water for 7 days), the “engraftment of CD45+, CD19+, CD34+ human blood cells” value was “no change in engraftment”.
For the compound `O=C(O)c1cc(Cl)ccc1Nc1c(N2CCC(F)CC2)cnc2ccc(Cl)cc12` [Compound 392A, 5-chloro-2-[[6-chloro-3-(4-fluoro-1-piperidyl)-4-quinolyl]amino]benzoic acid], the minimal effective concentration in series [1] and in series [2] was less than 0.001 µM throughout. Also, at rPAPD5, the ΔTm at 1 µM was more than 5 °C. In addition, the ΔTm at 10 µM at rPAPD5 (setting [7]) is more than 5 °C; on rPAPD5 (10 μM test compound, shift vs DMSO control, read-out: ΔTm (Table 2, starred: the compound was tested at 10 μM)) it was more than 5 °C. The midpoint of inhibition in series [3], the IC50, lay at 95 nM. Also, in series [4], the “TERC 3′ end processing by RACE at 100 nM” value is listed as “maturation of TERC 3′ end processing”. Moreover, the “TERC 3′ end processing by RACE at 1 μM” value in series [4] is given as “maturation of TERC 3′ end processing”. Further, in series [5] (32 mg/kg/dose twice daily for 11 doses (FIG. 41D)), the “TERC 3′ ends in human CD19+ cells (RACE)” value is given as “maturation of TERC 3′ ends”. In addition, in series [6] (32 mg/kg/dose twice daily for 11 doses), the “engraftment of CD45+, CD19+, CD34+ human blood cells” value is reported as “no change in engraftment”.

What is called ΔTm is the change in melting temperature against a reference sample. In general, IC50 refers to the point on the concentration scale where inhibition reaches its midpoint. Lower therefore signals greater potency in that assay.
